14 molecules from patent publication US7238716B2, “Alkanoic acid derivatives process for their production and use thereof” (Takeda Pharmaceuticals Company Limited, priority 2000, dated 2007) can be followed below.

Where two headings read alike, the source gives them in different places.

One test relates to KKAY mice. The test can be described thus: Hypoglycemic and hypolipidemic actions in mice (Test Example 1). Format: in vivo. To be noted: Mus musculus, po, 96 h, four days; for inhibition in vivo at 0.005 %: 0.005% in powdery diet; for inhibition in vivo at 0.01 %: 0.01% in powdery diet. From the text: Test compounds were mixed in a powdery diet (CE-2, Japan Clea) at the concentration of 0.01% (compounds of Examples 7, 26, 29, 32) or 0.005% (compounds of Examples 1, 11, 15, 18, 24, 36, 37, 41, 48, 50, 51, 52, 58, 62, 79, 83, 88, 90, 91, 92, 93, 97, 107, 110, 115, 119, 122, 125, 129 and 130), and freely given to KKAY mice (11 to 12 weeks old, 5 mice in a group), a model of type 2 diabetes mellitus, for four days. During this period, water was given freely. Blood was sampled from orbital venous plexus, and glucose and triglyceride levels in plasma separated from blood were determined enzymatically using L type Wako Glu2 (Wako Pure Chemical Industries, Ltd.) or L type Wako TG.H (Wako Pure Chemical Industries, Ltd.), respectively.
In the Table, “hypoglycemic action (%)” means a percent reduction (%) of the glucose level in the test compound administration group when that of the test compound non-administration group is taken as 100%. In addition, the “hypolipidemic action (%)” means a percent reduction (%) of the triglyceride level in the test compound administration group when that of the test compound non-administration group is taken as 100%.

In another test the target is T1, PPARγ-RXRα heterodimer (Homo sapiens, UniProt P37231).
T1 construct: expressed in transfected cells; host or cells: CHO-K1
T1 sequence (P37231 1-477 isoform P37231-2): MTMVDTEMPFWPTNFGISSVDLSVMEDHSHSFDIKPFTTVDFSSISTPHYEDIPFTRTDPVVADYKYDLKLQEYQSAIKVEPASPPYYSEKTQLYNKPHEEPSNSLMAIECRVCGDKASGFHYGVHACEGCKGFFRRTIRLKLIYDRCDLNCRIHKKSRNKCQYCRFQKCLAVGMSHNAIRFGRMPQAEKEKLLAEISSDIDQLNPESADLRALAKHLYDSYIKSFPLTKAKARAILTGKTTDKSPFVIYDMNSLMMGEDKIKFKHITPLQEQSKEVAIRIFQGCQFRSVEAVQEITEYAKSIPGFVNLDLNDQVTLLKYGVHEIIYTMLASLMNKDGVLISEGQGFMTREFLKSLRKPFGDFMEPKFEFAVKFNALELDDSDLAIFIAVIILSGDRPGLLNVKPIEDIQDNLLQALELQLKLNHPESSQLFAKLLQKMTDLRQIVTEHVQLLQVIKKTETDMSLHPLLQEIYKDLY
T1 sequence (P19793 1-462 partner): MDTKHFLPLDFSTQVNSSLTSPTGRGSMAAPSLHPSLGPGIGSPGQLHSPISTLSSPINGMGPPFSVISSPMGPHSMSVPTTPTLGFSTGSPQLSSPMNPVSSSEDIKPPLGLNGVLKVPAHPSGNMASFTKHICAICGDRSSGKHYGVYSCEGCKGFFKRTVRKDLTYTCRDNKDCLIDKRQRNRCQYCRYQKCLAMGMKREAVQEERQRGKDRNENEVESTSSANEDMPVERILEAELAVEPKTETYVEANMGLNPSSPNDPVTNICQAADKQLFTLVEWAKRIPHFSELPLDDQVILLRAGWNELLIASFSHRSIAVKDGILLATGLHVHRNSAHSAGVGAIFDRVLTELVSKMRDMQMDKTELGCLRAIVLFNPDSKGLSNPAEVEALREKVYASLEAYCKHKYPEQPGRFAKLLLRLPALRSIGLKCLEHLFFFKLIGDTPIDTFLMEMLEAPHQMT
Description: PPARγ-RXRα heterodimer ligand activity, luciferase reporter in PPARγ:RXRα:4ERPP/CHO-K1 cells (Test Example 3). Format: cell-based. The conditions noted are these: concentration for 50% of the maximum fold induction of luciferase activity; 48 hours, CHO-K1 cells. The protocol:
A PPARγ:RXRα:4ERPP/CHO-K1 cells obtained in Reference Example 5 described later were cultured in HAM F12 medium (produced by NISSUI SEIYAKU) containing 10% Fetal bovine serum (produced by Life Technologies, Inc., USA) and then inoculated to a 96-well white plate (produced by Corning Costar Corporation, USA) at the density of 2×10^4 cells/well, and cultured in a CO2 gas incubator at 37° C. overnight.
After washing the 96 well white plate with PBS (Phosphate-buffered saline), 90 μl of HAM F12 medium containing 0.1% fatty acid-free bovine serum albumin (BSA) and 10 μl of test compound were added, which was cultured in a CO2 gas incubator at 37° C. for 48 hours. After removing the medium, 40 μl of PIKKAGENE 7.5 (produced by Wako Pure Chemical Industries, Ltd.) was added. After stirring, the luciferase activity was determined using Lumistar (produced by BMG Labtechnologies GmbH, Germany).
A fold induction was calculated based on the luciferase activity of each test compound by taking the luciferase activity in the test compound non administration group as 1. The values of the test compound, concentration and the fold induction were analyzed using PRISM 2.01 (produced by GraphPad Software Inc. USA) to calculate the EC50 values, the effective concentration of a test compound for 50% of the maximum fold induction.
After a CHO-K1 cell cultured in a 750 ml tissue culture flask (produced by Corning-Costar Corporation, USA) containing HAM F12 medium (produced by NISSUI SEIYAKU) supplemented with 10% Fetal Bovine Serum (produced by Life Technologies, Inc., USA) was scraped by treating with 0.5 g/L trypsin-0.2 g/L EDTA (ethylenediaminetetraacetic acid) (produced by Life Technologies, Inc., USA), the cell was washed with PBS (phosphate buffered saline) (produced by Life Technologies, Inc., USA), centrifuged (1000 rpm, 5 minutes), and then suspended in PBS. Subsequently, a DNA was introduced into the cell under the condition shown below using GENE PULSER (produced by Bio-Rad Laboratories, USA).
Namely, to a cuvette having a 0.4 cm gap, added were 8×10^6 cells and 10 μg of plasmid pVgRXR2-hPPARγ obtained in Reference Example 3 and 10 μg of reporter plasmid pGL3-4ERPP-TK neo obtained in Reference Example 4, which was subjected to electroporation at the voltage of 0.25 kV under the capacitance of 960 μF. Subsequently, the cell was transferred into a HAM F12 medium containing 10% Fetal Bovine. Serum and cultured for 24 hours. Then the cell was scraped again and centrifuged, and then suspended in HAM F12 medium containing 10% Fetal Bovine Serum supplemented with 500 μg/ml of GENETICIN (produced by Life Technologies, Inc., USA) and 250 μg/ml of ZEOCIN (produced by Invitrogen, USA). The suspension was diluted to the density of 10^4 cells/ml, and inoculated to a 96-well plate (produced by Corning Costar Corporation, USA), which was cultured in a CO2 gas incubator at 37° C., whereby obtaining a GENETICIN- and ZEOCIN-resistant transformant.
Subsequently, after the transformant cell line thus obtained was cultured in a 24-well plate (produced by Corning Costar Corporation, USA), selected was a cell line, PPARγ:RXRα:4ERPP/CHO-K1 cell, in which the luciferase was expressed and induced by addition of 10 μM pioglitazone hydrochloride.

Setting [1] is: percent reduction of plasma glucose level vs non-administration group, read-out: hypoglycemic action (%).
Setting [2] is: percent reduction of plasma triglyceride level vs non-administration group, read-out: hypolipidemic action (%).

One may read the EC50 as the concentration giving half of the maximal effect. A lower EC50 goes with higher potency in that assay. `Cc1oc(-c2ccco2)nc1COc1ccc(COc2ccccc2CC(=O)O)cc1` [Example 50, 2-[2-[4-[[2-(2-furyl)-5-methyl-4-oxazolyl]methoxy]benzyloxy]phenyl]acetic acid]: the inhibition in vivo at 0.005 % in the test on KKAY mice (setting [1]) stood at 54%; with KKAY mice (setting [2]), 77%. Also, a half-maximal effect at PPARγ-RXRα heterodimer (EC50) was put at 0.18 µM.
For `Cc1oc(-c2ccccc2)nc1CCc1noc(COc2ccccc2CC(=O)O)n1` [Example 107, 2-[2-[[3-[2-(5-methyl-2-phenyl-4-oxazolyl)ethyl]-1,2,4-oxadiazol-5-yl]methoxy]phenyl]acetic acid], the inhibition in vivo at 0.005 % was 40% with KKAY mice (setting [1]) and 39% in the test with KKAY mice (setting [2]). At PPARγ-RXRα heterodimer, the concentration for a half-maximal effect (EC50) stood at 0.087 µM.
On to `O=C(O)Cc1ccccc1OCc1ccc(OCc2csc(-c3ccccc3)n2)cc1` [Example 51, 2-[2-[4-[(2-phenyl-4-thiazolyl)methoxy]benzyloxy]phenyl]acetic acid], for which the values for the inhibition in vivo at 0.005 % in the test with KKAY mice (setting [1]) and in the test on KKAY mice (setting [2]) were 55% and 79%, respectively. The 50% effective concentration (EC50) on PPARγ-RXRα heterodimer was 1.2 µM.
On to `Cc1oc(-c2ccccc2)nc1COc1cccc(COc2cccc(CC(=O)O)c2)c1` [Example 32, 2-[[3-[3-(5-methyl-2-phenyl-4-oxazolyl)methoxy]benzyloxy]phenyl]acetic acid], for which the inhibition in vivo at 0.01 % was determined as 40% with KKAY mice (setting [1]) and 53% in the test with KKAY mice (setting [2]). The EC50 at PPARγ-RXRα heterodimer worked out at 0.077 µM.
Take `Cc1oc(-c2ccccc2)nc1COc1ccc(COc2ccccc2CC(=O)O)cc1` [Example 11, 2-[2-[4-[(5-methyl-2-phenyl-4-oxazolyl)methoxy]benzyloxy]phenyl]acetic acid]: the inhibition in vivo at 0.005 % with KKAY mice (setting [1]) worked out at 56%; in the test with KKAY mice (setting [2]) it was 84%. This molecule also displayed an EC50 on PPARγ-RXRα heterodimer of 0.062 µM.
For the molecule `CCOc1ccc(OCc2ccc(OCc3nc(-c4ccccc4)oc3C)cc2)c(CCC(=O)O)c1` [Example 29, 3-[5-ethoxy-2-[4-[(5-methyl-2-phenyl-4-oxazolyl)methoxy]benzyloxy]phenyl]propionic acid], the inhibition in vivo at 0.01 % turned out to be 58% with KKAY mice (setting [1]) and 67% with KKAY mice (setting [2]). This molecule also had an EC50 at PPARγ-RXRα heterodimer of 0.025 µM.
Regarding `Cc1oc(-c2ccccc2)nc1COc1ccc(COc2cccc(CC(=O)O)c2)cc1` [Example 1, 2-[3-[4-[(5-methyl-2-phenyl-4-oxazolyl)methoxy]benzyloxy]phenyl]acetic acid], the inhibition in vivo at 0.005 % in the test with KKAY mice (setting [1]) came to 21%; with KKAY mice (setting [2]) it was 33%. Besides, the concentration for a half-maximal effect (EC50) on PPARγ-RXRα heterodimer came out at 0.29 µM.
As to `Cc1oc(-c2ccco2)nc1COc1ccc(COc2ncccc2CC(=O)O)cc1` [Example 92, 2-[2-[4-[[2-(2-furyl)-5-methyl-4-oxazolyl]methoxy]benzyloxy]-3-pyridyl]acetic acid], the inhibition in vivo at 0.005 % worked out at 58% in the test with KKAY mice (setting [1]) and 83% in the test with KKAY mice (setting [2]). Further, on PPARγ-RXRα heterodimer, the EC50 is 0.37 µM.
The like results for `Cc1oc(-c2ccccc2)nc1COc1cc(COc2ccccc2CC(=O)O)on1` [Example 79, 2-[2-[3-(5-methyl-2-phenyl-4-oxazolylmethoxy)-5-isoxazoly]methoxylphenyl]acetic acid] were, in that order, 54%, 96% and 0.0092 µM.
The like results for `Cc1sc(-c2ccccc2)nc1COc1ccc(COc2ncccc2CC(=O)O)cc1` [Example 93, 2-[2-[4-[(5-methyl-2-phenyl-4-thiazolyl)methoxy]benzyloxy]-3-pyridyl]acetic acid] were, in that order, 45%, 53% and 0.39 µM.
The like results for `Cc1oc(-c2ccccc2)nc1COc1ccc(COc2ncccc2CC(=O)O)cn1` [Example 88, 2-[2-[[6-[(5-methyl-2-phenyl-4-oxazolyl)methoxy]-3-pyridyl]methoxy]-3-pyridyl]acetic acid] were, in that order, 47%, 90% and 0.0071 µM.
Take `Cc1oc(-c2ccccc2)nc1CCc1ccc(COc2ccccc2CC(=O)O)cc1` [Example 97, 2-[2-[4-[2-(5-methyl-2-phenyl-4-oxazolyl)ethyl]benzyloxy]phenyl]acetic acid]: the results for the inhibition in vivo at 0.005 % in the test with KKAY mice (setting [1]) and in the test with KKAY mice (setting [2]) were 34% and 83%, respectively. On PPARγ-RXRα heterodimer, this molecule displayed a 50% effective concentration (EC50) of 0.026 µM.
The like results for `Cc1oc(-c2ccc3ccccc3c2)nc1COc1ccc(COc2ncccc2CC(=O)O)cc1` [Example 130, 2-[2-[4-[5-methyl-2-(2-naphthyl)-4-oxazolylmethoxy]benzyloxy]-3-pyridyl]acetic acid] were, in that order, 55%, 63% and 0.011 µM.
With `Cc1sc(-c2ccccc2)nc1COc1ccc(COc2ccccc2CC(=O)O)cc1` [Example 52, 2-[2-[4-[(5-methyl-2-phenyl-4-thiazolyl)methoxy]benzyloxy]phenyl]acetic acid], the inhibition in vivo at 0.005 % with KKAY mice (setting [1]) worked out at 56%; in the test on KKAY mice (setting [2]), 61%. In addition, a half-maximal effect on PPARγ-RXRα heterodimer (EC50) was put at 0.23 µM.
